Data from patent publication US7723473B2, “Peptide antagonists of TGF-beta family members and therapeutic uses thereof” (St. Louis University, priority 1997, dated 2010).

Tests used:
[1] = system: TGF-β receptors; assay: Inhibition of specific binding of 125I-TGF-β1 to TGF-β receptors in mink lung epithelial cells; settings: for TGF-β antagonist activity compared with the cysteine-containing peptides: C44S/C48S versions; for effect on 125I-TGF-β1 binding to TGF-β receptors: even at a concentration of 136 μM; for inhibition of 125I-TGF-β1 binding to TGF-β receptors (in words): various concentrations, FIG. 1D / control experiments; for IC50: 0.1 nM 125I-TGF-β1, 2.5 hr at 0° C., read-out: IC50 for inhibiting 125I-TGF-β1 binding to TGF-β receptors; for IC50 lower than that of peptide β1^25 (41-65) prior to conjugation: 125I-TGF-β1 binding
Procedure: Specific binding of ^125I-labeled TGF-β1, TGF-β2, and TGF-β3 (^125I-TGF-β1, ^125I-TGF-β2, and ^125I-TGF-β3) to TGF-β receptors in mink lung epithelial cells. ^125I-TGF-β1, ^125I-TGF-β2, and ^125I-TGF-β3 were prepared by iodination of TGF-β1, TGF-β2, and TGF-β3 with Na^125I as described previously (Ref. 7). The specific radioactivities of ^125I-TGF-β1, ^125I-TGF-β2, and ^125I-TGF-β3 were 1-3×10^5 cpm/ng. Mink lung epithelial cells were grown on 24-well clustered dishes to near confluence in Dulbecco's modified Eagle medium (DMEM) containing 10% fetal calf serum. The epithelial cells were incubated with 0.1 nM ^125I-TGF-β1, ^125I-TGF-β2, or ^125I-TGF-β3 both with and without 100-fold excess of unlabeled TGF-β1, TGF-β2, or TGF-β3 in binding buffer (Ref. 7). After 2.5 hr at 0° C., the cells were washed two times with binding buffer, and the cell-associated radioactivity was determined. […] All experiments were carried out in triplicate cell cultures.

[2] = Stability in solution or gel during storage; format: physicochemical; settings: compared with cysteine-containing peptides
Description: Preparation of peptides. The amino acid sequences of all peptides were derived from those of TGF-β1, TGF-β2, and TGF-β3. For peptides β1^25 (41-65), β2^25 (41-65), and β3^25 (41-65), other versions in which cysteine-44 and cysteine-48 were replaced by serine residues were also synthesized. […] The C44S/C48S version of peptide β1^25 (41-65) is designated SEQ ID NO:12, the C44S/C48S version of the peptide β2^25 (41-65) is designated SEQ ID NO: 13, and the C44S/C48S version of peptide of β3^25 (41-65) is designated SEQ ID NO:14. […] The peptides were synthesized using tert-butoxycarbonyl chemistry on an Applied Biosystems Model 431A peptide synthesizer and purified using Sephadex G-25 column chromatography and reverse-phase HPLC (C-8 column). The purity of the synthesized peptides were verified by automated Edman degradation on an Applied Biosystems Model 477A gas/liquid phase protein sequenator with an on-line Applied Biosystems Model 120A phenylthiohydantoin amino acid analyzer. The purity of all peptides was estimated to be ≧95%.
Preparation of IntraSite® gel containing TGF-β peptantagonist (peptide TGF-beta antagonist). 1 ml of sterile 6 mM peptide β1^25 (41-65) in phosphate buffered saline or 1 ml of sterile phosphate buffered saline was vigorously mixed with 3 ml of IntraSite® gel using two 10 ml syringes connected with a three-way connector. […] However, 1.5 mM of peptide β1^25 (41-65) was used throughout the experiments described below.

[3] = target: type V TGF-β receptor (Homo sapiens, UniProt Q07954); settings: Ref. 6; read-out: Kd for binding to the type V TGF-β receptor; cited from earlier work
[4] = system: PAI-1 expression; assay: PAI-1 expression in mink lung epithelial cells (Northern blot); format: cell-based; settings: conjugates alone, data not shown
Procedure: RNA Analysis—Mink lung epithelial cells were grown overnight in 12-well clustered dishes in DMEM containing 10% fetal calf serum. The medium was then changed to DMEM containing 0.1% fetal calf serum and the cells were incubated with 0.25 and 2.5 ρM TGF-β1 in the presence of various concentrations of peptide β1^25 (41-65) for 2.5 hr. Total cellular RNA was extracted using RNAzol B (Tel-Test Inc.) according to the manufacturer's protocol. RNA was electrophoresed in 1.2% agarose-formaldehyde gel and transferred to Duralon-UV membranes using 10×SSC. The membranes were probed at 42° C. with a random-primed, radiolabeled 1-kb fragment from the Hind III and NeoI digests of PAI-1 cDNA and glyceraldehyde-3-phosphate dehydrogenase (“GAPDH”) cDNA. The blots were washed with 0.1×SSC containing 0.1% SDS at room temperature.

[5] = system: mink lung epithelial cells; assay: Mink lung epithelial cell growth measured by DNA synthesis without added TGF-β1 (agonist activity); format: cell-based; settings: for EC50: no added TGF-β1, read-out: ED50 of growth inhibition as measured by DNA synthesis
Procedure: [Methyl-^3H]thymidine Incorporation—Mink lung epithelial cells grown on 24-well clustered dishes were incubated with various concentrations of TGF-β1 in the presence and absence of peptide β1^25 (41-65) or with various concentrations of peptide β1^25 (41-65)-CA, and peptide β1^25 (41-65)-BSA in DMEM containing 0.1% fetal calf serum. After 16 hr at 37° C., the cells were pulsed with 1 μCi/ml of [methyl-^3H]thymidine for 4 hr. The cells were then washed twice with 1 ml of 10% trichloroacetic acid and once with 0.5 ml of ethanol:ether (2:1, v/v). The cells were then dissolved in 0.4 ml of 0.2 N NaOH and counted with a liquid scintillation counter.

[6] = system: TGF-β receptors; assay: Inhibition of specific binding of 125I-TGF-β2 to TGF-β receptors in mink lung epithelial cells; settings: 0.1 nM 125I-TGF-β2, 2.5 hr at 0° C.; read-out: IC50 for inhibiting 125I-TGF-β2 binding to TGF-β receptors
Procedure: (§1) Specific binding of ^125I-labeled TGF-β1, TGF-β2, and TGF-β3 (^125I-TGF-β1, ^125I-TGF-β2, and ^125I-TGF-β3) to TGF-β receptors in mink lung epithelial cells. ^125I-TGF-β1, ^125I-TGF-β2, and ^125I-TGF-β3 were prepared by iodination of TGF-β1, TGF-β2, and TGF-β3 with Na^125I as described previously (Ref. 7). The specific radioactivities of ^125I-TGF-β1, ^125I-TGF-β2, and ^125I-TGF-β3 were 1-3×10^5 cpm/ng. Mink lung epithelial cells were grown on 24-well clustered dishes to near confluence in Dulbecco's modified Eagle medium (DMEM) containing 10% fetal calf serum. The epithelial cells were incubated with 0.1 nM ^125I-TGF-β1, ^125I-TGF-β2, or ^125I-TGF-β3 both with and without 100-fold excess of unlabeled TGF-β1, TGF-β2, or TGF-β3 in binding buffer (Ref. 7). After 2.5 hr at 0° C., the cells were washed two times with binding buffer, and the cell-associated radioactivity was determined. The specific binding of ^125I-labeled TGF-β isoforms to TGF-β receptors in the cells was calculated by subtracting non-specific binding (in the presence of 100-fold excess of the unlabeled TGF-β isoforms) from total binding. All experiments were carried out in triplicate cell cultures.

[7] = system: type V TGF-β receptor (TβR-V); assay: 125I-TGF-β1-affinity labeling of cell-surface type V TGF-β receptor in mink lung epithelial cells; format: binding; settings: various concentrations, FIG. 2 lanes 2-5
Procedure: ^125I-TGF-β1-affinity labeling of cell-surface TGF-β receptors in mink lung epithelial cells. Mink lung epithelial cells grown on 60-mm Petri dishes were incubated with 0.1 nM […] the presence of various concentrations of peptide β1^25 (41-65) or peptide β3^25 (41-65) in binding buffer. After 2.5 hr at 0° C., ^125I-TGF-β1-affinity labeling was carried out in the presence of DSS as described. The ^125I-TGF-β1-affinity-labeled TGF-β receptors were analyzed by 5% SDS-polyacrylamide gel electrophoresis under reducing conditions and autoradiography.

[8] = system: TGF-β receptors; assay: Inhibition of specific binding of 125I-TGF-β3 to TGF-β receptors in mink lung epithelial cells; settings: 0.1 nM 125I-TGF-β3, 2.5 hr at 0° C.; read-out: IC50 for inhibiting 125I-TGF-β3 binding to TGF-β receptors
Procedure: as §1

type V TGF-β receptor, sequence (Q07954 20-4544): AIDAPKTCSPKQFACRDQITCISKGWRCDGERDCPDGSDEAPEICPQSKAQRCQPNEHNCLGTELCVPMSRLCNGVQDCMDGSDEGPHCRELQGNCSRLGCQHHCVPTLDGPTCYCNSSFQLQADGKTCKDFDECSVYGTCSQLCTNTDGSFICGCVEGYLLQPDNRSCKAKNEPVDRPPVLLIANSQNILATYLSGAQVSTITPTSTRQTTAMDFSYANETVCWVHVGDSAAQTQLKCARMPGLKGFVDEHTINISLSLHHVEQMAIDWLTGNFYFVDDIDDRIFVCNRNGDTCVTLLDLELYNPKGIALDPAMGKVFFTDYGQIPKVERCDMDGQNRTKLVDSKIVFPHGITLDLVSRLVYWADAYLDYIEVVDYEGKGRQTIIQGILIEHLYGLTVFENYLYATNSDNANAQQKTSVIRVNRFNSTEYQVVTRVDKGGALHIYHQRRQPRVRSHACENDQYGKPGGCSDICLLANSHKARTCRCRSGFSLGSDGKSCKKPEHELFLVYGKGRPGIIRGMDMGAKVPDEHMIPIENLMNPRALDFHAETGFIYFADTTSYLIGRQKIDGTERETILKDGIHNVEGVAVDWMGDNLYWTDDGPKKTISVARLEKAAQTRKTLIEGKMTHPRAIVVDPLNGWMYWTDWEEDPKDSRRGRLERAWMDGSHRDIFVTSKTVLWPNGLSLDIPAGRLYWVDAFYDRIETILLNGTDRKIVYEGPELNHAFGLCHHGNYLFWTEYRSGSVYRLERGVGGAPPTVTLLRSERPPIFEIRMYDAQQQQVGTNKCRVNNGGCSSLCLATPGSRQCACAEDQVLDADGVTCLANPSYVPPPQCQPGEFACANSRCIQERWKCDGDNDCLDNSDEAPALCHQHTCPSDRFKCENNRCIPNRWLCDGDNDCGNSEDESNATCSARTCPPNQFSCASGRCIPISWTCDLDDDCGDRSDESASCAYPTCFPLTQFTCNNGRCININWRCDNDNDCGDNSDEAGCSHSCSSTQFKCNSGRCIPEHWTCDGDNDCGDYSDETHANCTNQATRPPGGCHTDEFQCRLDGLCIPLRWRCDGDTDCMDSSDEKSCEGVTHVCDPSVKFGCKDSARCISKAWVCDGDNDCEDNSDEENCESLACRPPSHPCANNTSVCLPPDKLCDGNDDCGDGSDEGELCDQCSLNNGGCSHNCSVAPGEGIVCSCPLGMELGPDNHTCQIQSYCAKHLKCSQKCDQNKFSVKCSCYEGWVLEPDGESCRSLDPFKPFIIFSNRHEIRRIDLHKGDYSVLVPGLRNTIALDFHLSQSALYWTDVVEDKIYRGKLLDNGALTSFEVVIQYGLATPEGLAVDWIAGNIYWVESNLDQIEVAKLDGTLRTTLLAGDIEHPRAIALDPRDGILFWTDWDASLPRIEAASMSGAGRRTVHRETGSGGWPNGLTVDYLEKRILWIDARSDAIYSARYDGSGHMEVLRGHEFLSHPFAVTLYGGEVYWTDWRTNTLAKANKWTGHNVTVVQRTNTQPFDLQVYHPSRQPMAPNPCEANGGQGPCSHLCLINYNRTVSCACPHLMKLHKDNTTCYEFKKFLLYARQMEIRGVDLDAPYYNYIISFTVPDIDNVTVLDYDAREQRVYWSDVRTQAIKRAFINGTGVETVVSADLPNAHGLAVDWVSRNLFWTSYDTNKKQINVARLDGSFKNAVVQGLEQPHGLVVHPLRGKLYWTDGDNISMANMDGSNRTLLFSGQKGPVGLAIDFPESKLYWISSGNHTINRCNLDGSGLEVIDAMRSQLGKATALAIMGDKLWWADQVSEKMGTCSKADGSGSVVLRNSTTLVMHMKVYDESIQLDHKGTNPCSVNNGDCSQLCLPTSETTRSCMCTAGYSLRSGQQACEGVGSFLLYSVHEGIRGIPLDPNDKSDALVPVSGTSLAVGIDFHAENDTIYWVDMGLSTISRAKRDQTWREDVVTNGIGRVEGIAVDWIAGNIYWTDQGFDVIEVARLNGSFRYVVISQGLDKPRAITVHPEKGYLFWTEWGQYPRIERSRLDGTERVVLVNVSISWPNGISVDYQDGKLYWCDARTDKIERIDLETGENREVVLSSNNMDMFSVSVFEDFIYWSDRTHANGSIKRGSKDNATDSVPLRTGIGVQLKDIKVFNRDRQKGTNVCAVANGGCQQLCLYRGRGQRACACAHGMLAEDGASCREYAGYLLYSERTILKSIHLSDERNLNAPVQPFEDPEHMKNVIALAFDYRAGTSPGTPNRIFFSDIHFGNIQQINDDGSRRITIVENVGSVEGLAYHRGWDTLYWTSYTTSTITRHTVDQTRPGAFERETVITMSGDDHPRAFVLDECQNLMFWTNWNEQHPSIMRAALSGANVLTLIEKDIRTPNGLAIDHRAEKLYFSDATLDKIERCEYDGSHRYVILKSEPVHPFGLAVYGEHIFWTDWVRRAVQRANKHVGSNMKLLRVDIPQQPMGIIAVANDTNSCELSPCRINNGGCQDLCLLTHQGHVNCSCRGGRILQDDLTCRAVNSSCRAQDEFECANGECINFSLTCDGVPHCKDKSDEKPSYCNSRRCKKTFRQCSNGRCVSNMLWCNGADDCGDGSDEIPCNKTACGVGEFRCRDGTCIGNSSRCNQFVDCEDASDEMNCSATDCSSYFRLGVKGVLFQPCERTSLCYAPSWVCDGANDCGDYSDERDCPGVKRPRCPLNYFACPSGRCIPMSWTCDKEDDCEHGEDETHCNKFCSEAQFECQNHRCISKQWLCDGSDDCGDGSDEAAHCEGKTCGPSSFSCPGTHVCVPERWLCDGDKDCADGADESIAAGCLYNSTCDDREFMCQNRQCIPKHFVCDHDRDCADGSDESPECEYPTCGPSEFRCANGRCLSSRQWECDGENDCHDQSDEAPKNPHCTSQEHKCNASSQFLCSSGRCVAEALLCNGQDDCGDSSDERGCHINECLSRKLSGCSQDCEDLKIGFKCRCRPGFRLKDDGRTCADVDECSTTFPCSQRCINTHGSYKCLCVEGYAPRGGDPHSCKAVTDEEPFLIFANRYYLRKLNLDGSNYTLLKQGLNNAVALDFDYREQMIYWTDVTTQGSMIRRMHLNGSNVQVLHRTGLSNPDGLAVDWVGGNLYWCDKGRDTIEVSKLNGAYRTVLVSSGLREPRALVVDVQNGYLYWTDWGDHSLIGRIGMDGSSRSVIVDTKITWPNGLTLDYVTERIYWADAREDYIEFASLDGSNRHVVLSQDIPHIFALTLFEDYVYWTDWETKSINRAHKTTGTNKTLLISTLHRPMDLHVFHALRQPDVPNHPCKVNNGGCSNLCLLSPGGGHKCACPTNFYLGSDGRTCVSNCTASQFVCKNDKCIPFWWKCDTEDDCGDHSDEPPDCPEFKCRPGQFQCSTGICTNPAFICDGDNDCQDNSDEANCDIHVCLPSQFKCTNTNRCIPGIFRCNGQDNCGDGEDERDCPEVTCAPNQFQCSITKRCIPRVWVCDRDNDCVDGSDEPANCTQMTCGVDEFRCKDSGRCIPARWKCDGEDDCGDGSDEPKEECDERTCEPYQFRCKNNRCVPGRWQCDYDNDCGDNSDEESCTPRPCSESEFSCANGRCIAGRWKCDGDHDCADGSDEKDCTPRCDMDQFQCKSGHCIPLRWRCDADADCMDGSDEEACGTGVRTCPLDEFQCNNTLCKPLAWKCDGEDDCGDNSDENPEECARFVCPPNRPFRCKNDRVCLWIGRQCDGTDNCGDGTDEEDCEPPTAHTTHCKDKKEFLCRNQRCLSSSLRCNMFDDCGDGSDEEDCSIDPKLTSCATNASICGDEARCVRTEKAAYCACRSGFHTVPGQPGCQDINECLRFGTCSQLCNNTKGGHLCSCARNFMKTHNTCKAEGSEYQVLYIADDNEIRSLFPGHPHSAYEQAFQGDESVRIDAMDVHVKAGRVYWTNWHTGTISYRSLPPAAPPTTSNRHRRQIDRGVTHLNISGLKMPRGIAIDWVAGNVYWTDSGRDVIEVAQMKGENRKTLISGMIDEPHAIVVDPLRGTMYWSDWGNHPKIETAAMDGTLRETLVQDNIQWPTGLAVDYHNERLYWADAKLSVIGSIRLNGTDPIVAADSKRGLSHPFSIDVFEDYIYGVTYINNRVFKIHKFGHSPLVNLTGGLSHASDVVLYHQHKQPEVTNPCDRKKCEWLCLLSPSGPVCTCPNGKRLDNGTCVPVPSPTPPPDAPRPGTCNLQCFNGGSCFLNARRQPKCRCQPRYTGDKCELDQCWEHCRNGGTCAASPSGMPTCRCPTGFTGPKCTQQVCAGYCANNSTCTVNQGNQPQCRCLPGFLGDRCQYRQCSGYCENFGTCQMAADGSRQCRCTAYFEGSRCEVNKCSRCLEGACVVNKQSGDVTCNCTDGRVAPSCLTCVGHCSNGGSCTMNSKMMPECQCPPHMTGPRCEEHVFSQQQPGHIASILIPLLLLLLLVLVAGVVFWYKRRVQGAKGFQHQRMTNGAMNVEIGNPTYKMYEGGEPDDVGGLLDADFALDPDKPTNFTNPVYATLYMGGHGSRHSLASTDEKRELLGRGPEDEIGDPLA

SEQ ID NO: 13: β2^25 (41-65) with cysteine-44 and cysteine-48 replaced by serine residues (ANFSAGASPYLWSSDTQHSRVLSLY; Human)
TGF-β antagonist activity compared with the cysteine-containing peptides [1]: same TGF-β antagonist activity | stability in solution during storage [2]: better stability

TGF-β1: transforming growth factor β1, 25-kDa dimeric protein
Kd [3]: ~0.4 nM

peptide β1^25 (61-85): pentacosapeptide, residues 61-85 of human TGF-β1 (VLALYNQHNPGASAAPCCVPQALEP)
effect on 125I-TGF-β1 binding to TGF-β receptors [1]: did not show any effect

β1^10 (49-58) D55A (PYIWSLATQY)
inhibition of 125I-TGF-β1 binding to TGF-β receptors (in words) [1]: similar

peptide β1^25 (71-95): pentacosapeptide, residues 71-95 of human TGF-β1 (GASAAPCCVPQALEPLPIVYYVGRK)
effect on 125I-TGF-β1 binding to TGF-β receptors [1]: did not show any effect

peptide β1^25 (81-105): pentacosapeptide, residues 81-105 of human TGF-β1 (QALEPLPIVYYVGRKPKVEQLSNMI)
effect on 125I-TGF-β1 binding to TGF-β receptors [1]: did not show any effect

β2^10 (49-58) S53A (PYLWASDTQH)
IC50 [1]: ~40000 nM

β1^25 (41-65) W52A/D55A (ANFCLGPCPYIASLATQYSKVLALY)
inhibition of 125I-TGF-β1 binding to TGF-β receptors (in words) [1]: did not inhibit

β1^25 (41-65)-BSA: peptide β1^25 (41-65) cross-linked with DSS to bovine serum albumin, ~5-10 peptides per carrier protein
IC50 lower than that of peptide β1^25 (41-65) prior to conjugation [1]: ~20 fold | effects on the expression of PAI-1 [4]: neither showed significant effects | EC50 [5]: ~100 nM

peptide β1^25 (21-45): pentacosapeptide, residues 21-45 of human TGF-β1 (YIDFRKDLGWKWIHEPKGYHANFCL)
effect on 125I-TGF-β1 binding to TGF-β receptors [1]: did not show any effect

β2^10 (49-58) W52A (PYLASSDTQH)
inhibition of 125I-TGF-β1 binding to TGF-β receptors (in words) [1]: failed to inhibit

SEQ ID NO:12: β1^25 (41-65) with cysteine-44 and cysteine-48 replaced by serine residues (ANFSLGPSPYIWSLDTQYSKVLALY; listed as Homo sapiens)
TGF-β antagonist activity compared with the cysteine-containing peptides [1]: same TGF-β antagonist activity | stability in solution during storage [2]: better stability

β3^10 (49-58): decapeptide, residues 49-58 of TGF-β3 (SEQ ID NO:9) (PYLRSADTTH; listed as Homo sapiens)
inhibitory activity on 125I-TGF-β1 binding ([1]; concentrations up to ~300 μM): did not show any inhibitory activity

TGF-β2: transforming growth factor β2
Kd [3]: ~0.4 nM

β3^25 (41-65) R52A/D55A (ANFCSGPCPYLASAATTHSTVLGLY)
inhibition of 125I-TGF-β1 binding to TGF-β receptors (in words) [1]: did not inhibit

SEQ ID NO:14: β3^25 (41-65) with cysteine-44 and cysteine-48 replaced by serine residues (ANFSSGPSPYLRSADTTHSTVLGLY; listed as Homo sapiens)
TGF-β antagonist activity compared with the cysteine-containing peptides [1]: same TGF-β antagonist activity | stability in solution during storage [2]: better stability

ANFCSGPCPYLRSADTTHSTVLGLY [peptide β3^25 (41-65)]
IC50 [1]: ~20000 nM | IC50 [6]: ~20000 nM | blocking the 125I-TGF-β1-affinity labeling of the type V TGF-β receptor [7]: weak activity

β1^25 (41-65)-CA: peptide β1^25 (41-65) cross-linked with DSS to human carbonic anhydrase I, ~5-10 peptides per carrier protein
IC50 [1]: ~50 nM | IC50 lower than that of peptide β1^25 (41-65) prior to conjugation [1]: ~20 fold | effects on the expression of PAI-1 [4]: neither showed significant effects | growth inhibition induced by conjugate ([5]; 0.2 μM conjugate): 30-40% | EC50 [5]: ~100 nM

CA: carrier protein human carbonic anhydrase I conjugated without peptides, control [reference compound]
inhibition of 125I-TGF-β1 binding to TGF-β receptors (in words) [1]: did not have inhibitory activity

ANFCAGACPYLWSSDTQHSRVLSLY [peptide β2^25 (41-65)]
IC50 [8]: ~80 nM

β1^10 (49-58) S53A (PYIWALDTQY)
inhibition of 125I-TGF-β1 binding to TGF-β receptors (in words) [1]: similar

β1^10 (49-58) W52A (PYIASLDTQY)
inhibition of 125I-TGF-β1 binding to TGF-β receptors (in words) [1]: similar

TGF-β3: transforming growth factor β3
Kd [3]: ~5 nM

peptide β1^25 (31-55): pentacosapeptide, residues 31-55 of human TGF-β1 (KWIHEPKGYHANFCLGPCPYIWSLD)
effect on 125I-TGF-β1 binding to TGF-β receptors [1]: did not show any effect

β2^10 (49-58) D55A (PYLWSSATQH)
inhibition of 125I-TGF-β1 binding to TGF-β receptors (in words) [1]: failed to inhibit

peptide β1^25 (51-75): pentacosapeptide, residues 51-75 of human TGF-β1 (IWSLDTQYSKVLALYNQHNPGASAA)
effect on 125I-TGF-β1 binding to TGF-β receptors [1]: did not show any effect
